Experimental data as given in article PMC7395176, “Retromer stabilization results in neuroprotection in a model of Amyotrophic Lateral Sclerosis” (Nature Communications, 2020).

How the values were obtained:
VPS29 = target: T1, VPS29 (Mus musculus, UniProt Q9QZ88); assay: Western blot for VPS29 in treated Neuro2a cells; assay type: cell-based; settings: 10 µM, 48 h, WB
T1 construct: endogenous in cells; host or cells: Neuro2a (ATCC CCL-131)
Protocol: Compound 2a increases VPS26b and VPS29 in Neuro2a […]
a,WBs forVPS26b, VPS29 and β-Tubulin in vehicle- and compound 2a-treated Neuro2a cells(10 μM, 48h, 3x10^5 cells/well).Quantitative analyses of blots (means ± SD) are shown inhistograms (control:n=4 independent wells, 2a: n=5 independent wells examined in one experiment, p<0.0001 for all the comparisons. Two-tailed Student’s test was used to determine the statisticalsignificanceof data, ***p<0.0001
(1 picture or pasted object on this page, not shown here)

[1] = system: Mouse cortical neurons (E16.5); assay: Micro Electrode Array (MEA) recording of neuronal firing; assay type: cell-based
Protocol: We assessed the cytotoxicity of compound 2a, measuring survival of Neuro2a cells exposed to increasing 2a concentrations. […] We next checked for toxic effects of compound 2a in primary neuronal cultures coupled with Micro Electrode Array (MEA) devices. Mouse cortical neurons (E16.5) were plated on MEAs, kept in culture for 14 days to develop firing activity and recorded in presence of 2a.
Primary neuronal cultures were established from the cerebral cortex of E16.5 C57BL6J embryos. Upon dissection, cells were plated on MEA biochips (60 electrode MEA biochips with 200 µm electrode spacing and 30 µm electrodes diameter with an integrated reference electrode, Multichannel Systems GmbH) at the density of 3 × 10^5 cells/MEA and kept in Neurobasal medium supplemented with B27 for 14 days. At day 14 neuronal cultures were exposed to increasing concentration of compound 2a (1, 3, 10, 30, and 100 µM) in Krebs–Ringer–Hepes buffer (KRH, 130 mM NaCl, 5 mM KCl, 1.2 mM KH2PO4, 1.2 mM MgSO4, 2 mM CaCl2, 25 mM Hepes, 0.6% glucose, 1% glutamine, Sigma–Aldrich). Firing activity was recorded using a pre-amplifier stage (MEA-1060-Inv-BC-Standard, gain: 55, bandwidth: 300 Hz–8 kHz, MCS GmbH), an amplification and filtering stage (FA64S, gain 20, bandwidth: 10 Hz–8 kHz, MCS GmbH) and a data acquisition device (sampling frequency: 25 kHz). Then, off-line signal processing was performed, and raw data were analyzed by MC-Rack Software version 4.6.2 (MCS GmbH).
Panels a and b; neuronal activityfrom the same electrode of a representative MEA biochip (3x105 cortical neurons/chip, n=5 independent chips from 2 independent experiments) treated with 2a, at the concentration of 1 µM (a) and 100 µM (b). Neurons received increasing amounts of lead 2a (1,3, 10, 30 and 100 µM) and were recorded every 5 min; c, quantifications of the firing activityreported as fold changes of spike numbers (box plots show median values; whiskers show 10-90 percentile) measured at the concentration of 1
µM. Kruskal-Wallis testfollowed by Dunn’s multiple comparison test was used to analyze the […]

VPS35 [2] = target: T2, VPS35 (Mus musculus, UniProt Q9EQH3+Q9QZ88); settings: Neuro2a cells, 10 µM, 48 h, WB
Protocol: Protein extracts were collected, separated by SDS-PAGE and immunoblotted for VPS35 and the housekeeping gene β-Actin.
Neuro2a cells (ATCC® CCL-131™) were seeded in Dulbecco’s modified Eagle’s media (DMEM, Gibco) supplemented with FBS 10% (Gibco), L-glutamine (Gibco) 2 mM and penicillin/streptomycin 1% (Gibco). Depending on the experimental setting, we used 6-well, 12-well or 96-well dishes. Neuro2a were grow at 37 °C in a humidified 5% CO2 atmosphere. All experiments were carried out at least in triplicate. Compounds and transfections were done on cells showing 60–70% of confluence. Compounds were usually kept on cells for 48 h; Bortezomib (BTZ) was used at 10 nM for 6 h to inhibit proteasome.
Protein lysates from cells cultures were collected from plates receiving PBS 1× washing and subsequently the lysis buffer followed by sonication. Protein concentrations were measured by BCA protein assay kit (Thermofisher) according to the manufacturer’s recommendations. Ten µg of protein extract was loaded on 10% Mini-PROTEAN TGX Stain-Free precast gels for PAGE (Bio-Rad). Gel electrophoresis was performed at 100 V for 2 h. Gels were transferred on Immobilon®-P PVDF membrane according to the manufacturer’s instructions (Millipore). Blots were blocked in 5% BSA in Tris buffered saline plus 0.1% Tween-20 (TBS-T) for 1 h before receiving primary antibodies: goat α-VPS35 1:800 (ab10099, Abcam); rabbit α-VPS26 1:1000 (ab23892 Abcam), rabbit α-VPS26b 1:1000 (15915-1-AP, ProteinTech); rabbit α-VPS29 1:1000 (ab236796 Abcam); mouse α-βActin 1:25000 (Sigma–Aldrich); mouse α-Golgin97 1:1000 (Invitrogen); mouse α-Ubiquitin 1:500 (Merk); rabbit α-CD14 1:1000 (Bioss Inc); mouse α-Tubulin 1:5000 (Immunological Sciences MAB-80143) overnight at 4 °C on shaker. Following several washes with TBS-T, blots were incubated in appropriate HRP-labeled secondary antibodies (Bio-Rad) for 1 h at room temperature. Visualization of protein bands was obtained using ClarityMax-ECL (Bio-Rad) according to the manufacturer’s instructions and images were acquired on ChemiDoc (Bio-Rad). Quantifications were done using the Image Lab 6.0.1 software (Bio-Rad).

VPS35 [3] = target: T2, VPS35; assay: VPS35 levels in MNs and lumbar SC of treated G93A mice; assay type: in vivo; parameters: from tissue; host or cells: mouse (lumbar) spinal cord, motor neurons; settings: 10 mg/kg, day 100
Protocol: We asked whether compound 2a could do the same in G93A MNs, using confocal microscopy to quantify VPS35 fluorescence levels in MNs gated in the ventral horn of lumbar SCs. We observed a significant reduction of VPS35 mean fluorescence intensity (MFI) levels in vehicle-treated G93A mice. […] We next assayed VPS26 MFI levels on parallel sections.
Fluorescence intensity levels of VPS35, VPS26, CI-MPR, Sortilin, CTSD and Ubiquitin were calculated using NHI-Image J software (US National Institutes of Health) according to the following protocol: stacks of confocal images were used to generate the maximal projections using the Leica Application Suite X (2.0.0.14332) software and then postprocessed by NHI-Image J to crop single NeuN^+ MNs from the ventral horn of the spinal cord. We next performed background (calculated on adjacent slices only receiving secondary antibodies) subtraction for each channel, before applying the NHI-Image J mean filter (with radius 2.0 pixels) to calculate mean NeuN fluorescence levels in individual MNs. Using this approach, we established a region of interest (ROI) to gate single MNs. On this ROI, we measured mean fluoresce levels (MFI) of target proteins.
Compound 2a increases VPS35 levels in G93A mice […]

`NC(N)=N/N=C/c1cccc(/C=N/N=C(N)N)c1` [compound 2a, phenyl-1,3-bis-guanylhydrazone] was tested, and the VPS29 protein levels (VPS29) was “significantly increased”, the neuronal firing ([1]; 10µM) was “does not perturb neuronal firing” and the “neuronal firing (spikes)” value ([1]; 100 μM of 2a) was “slight reduction of spikes”. For the same molecule, the neuronal firing ([1]; low concentrations of 2a) was “did not alter neuronal firing”, the VPS35 levels (VPS35 [2]) was “increased VPS35 levels” and the “VPS35 levels in lumbar SC extracts (WB)” value (VPS35 [3]) was “increase VPS35 and VPS26b levels”. For the same molecule, the “VPS35 mean fluorescence intensity (MFI) in MNs” value (VPS35 [3]) was “significantly increased”.
